Reference: patent US12187683B2, “Benzoindazolone compound and intermediate thereof” (LMITO THERAPEUTICS INC., priority 2019, dated 2025)

Biological target: NQO1 (Homo sapiens, UniProt P15559)
Assay: In vitro NQO1 enzyme activity assay (cytochrome C reduction, absorbance at 550 nm)
Assay type: biochemical
Conditions: Table 1; NQO1 2 ng, Compound 5 μM; control 196
Procedure: In order to evaluate the activity of synthesized compound in NQO1, the experiments were conducted as follows:
The synthesized compound was dissolved in DMSO to make a 10 mM stock solution, which was further diluted with DMSO to 250 μM so as to prepare a working solution. For experimental groups, the working solution of the compound was added to an enzyme reaction solution in which 50 μL of 1.54 mM Cytochrome C solution was added to 900 μL of 50 mM Tris-HCl (pH7.5) containing 0.14% BSA. For negative control groups, DMSO not containing the compound of the invention was added to the enzyme reaction solution as above. For each experimental and control group, 20 μL of 100 ng/mL NQO1 protein was added. Next, 10 μL of 20 mM NADH was added to bring up the volume to 1 mL. The change of absorbance was measured at 550 nm for 10 minutes using 1 mL cuvette. The kinetics of reaction was measured with the increase of absorbance as the cytochrome C was reduced at 550 nm over 10 minutes. The activity of NQO1 was measured by the amount of cytochrome C that is being reduced (nmol cytochrome C that was reduced/min/ug NQO1 protein).
Absorption coefficient of Cytochrome C: 21.1 (μmol/mL)^−1 cm^−1
Equipment=Cary 100 UV-Vis Spectrophotometer

Chain of NQO1 (P15559 whole entry, species assumed): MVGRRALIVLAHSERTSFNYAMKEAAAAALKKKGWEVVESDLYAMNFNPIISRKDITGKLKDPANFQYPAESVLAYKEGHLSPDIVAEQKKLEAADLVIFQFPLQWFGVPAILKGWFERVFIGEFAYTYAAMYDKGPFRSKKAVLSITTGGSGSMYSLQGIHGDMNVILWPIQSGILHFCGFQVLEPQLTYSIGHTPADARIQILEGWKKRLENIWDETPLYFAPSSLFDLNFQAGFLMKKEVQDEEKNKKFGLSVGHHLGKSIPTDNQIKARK

| SMILES | NQO1 activity (nmol of reduced Cytochrome C/min/μg NQO1 protein) |
| --- | --- |
| O=C1C(=O)c2c(n(-c3ccccc3)[nH]c2=O)-c2ccccc21 [Compound 1, 1-phenyl-1H-benzo[g]indazol-3,4,5(2H)-trione] | 180 nmol of reduced Cytochrome C/min/μg NQO1 protein |
| CC(C)n1c(=O)c2c(n1C)-c1ccccc1C(=O)C2=O [Compound 3, 2-isopropyl-1-methyl-1H-benzo[g]indazol-3,4,5(2H)-trione] | 3066 nmol of reduced Cytochrome C/min/μg NQO1 protein |
| Cn1c(=O)c2c(n1-c1ccccc1)-c1ccccc1C(=O)C2=O [Compound 5, 2-methyl-1-phenyl-1H-benzo[g]indazol-3,4,5(2H)-trione] | 2602 nmol of reduced Cytochrome C/min/μg NQO1 protein |
| COc1nn(-c2ccccc2)c2c1C(=O)C(=O)c1ccccc1-2 [Compound 6, 3-methoxy-1-phenyl-1H-benzo[g]indazol-4,5-dione] | 7706 nmol of reduced Cytochrome C/min/μg NQO1 protein |

Same assay, conditions: Table 2; NQO1 2 ng, Compound 0.2 μM; control 96

| SMILES | NQO1 activity (nmol of reduced Cytochrome C/min/μg NQO1 protein) |
| --- | --- |
| CC(C)Oc1nn(-c2ccccc2)c2c1C(=O)C(=O)c1ccccc1-2 [Compound 2, 3-isopropoxy-1-phenyl-1H-benzo[g]indazol-4,5-dione] | 3531 nmol of reduced Cytochrome C/min/μg NQO1 protein |
| COc1nn(-c2ccccc2)c2c1C(=O)C(=O)c1ccccc1-2 [Compound 6, 3-methoxy-1-phenyl-1H-benzo[g]indazol-4,5-dione] | 3782 nmol of reduced Cytochrome C/min/μg NQO1 protein |
| CCn1c(=O)c2c(n1-c1ccccc1)-c1ccccc1C(=O)C2=O [Compound 7, 2-ethyl-1-phenyl-1H-benzo[g]indazol-3,4,5(2H)-trione] | 2246 nmol of reduced Cytochrome C/min/μg NQO1 protein |
| CCOc1nn(-c2ccccc2)c2c1C(=O)C(=O)c1ccccc1-2 [Compound 8, 3-ethoxy-1-phenyl-1H-benzo[g]indazol-4,5-dione] | 3768 nmol of reduced Cytochrome C/min/μg NQO1 protein |
| CC(C)Cn1c(=O)c2c(n1-c1ccccc1)-c1ccccc1C(=O)C2=O [Compound 9, 2-isobutyl-1-phenyl-1H-benzo[g]indazol-3,4,5(2H)-trione] | 2474 nmol of reduced Cytochrome C/min/μg NQO1 protein |
| CC(C)COc1nn(-c2ccccc2)c2c1C(=O)C(=O)c1ccccc1-2 [Compound 10, 3-isobutoxy-1-phenyl-1H-benzo[g]indazol-4,5-dione] | 3455 nmol of reduced Cytochrome C/min/μg NQO1 protein |
| CC(C)CCn1c(=O)c2c(n1-c1ccccc1)-c1ccccc1C(=O)C2=O [Compound 11, 2-isopentyl-1-phenyl-1H-benzo[g]indazol-3,4,5(2H)-trione] | 2839 nmol of reduced Cytochrome C/min/μg NQO1 protein |
| CC(C)CCOc1nn(-c2ccccc2)c2c1C(=O)C(=O)c1ccccc1-2 [Compound 12, 3-(isopentyloxy)-1-phenyl-1H-benzo[g]indazol-4,5-dione] | 2981 nmol of reduced Cytochrome C/min/μg NQO1 protein |
| CC(C)n1c(=O)c2c(n1-c1ccccc1)-c1ccccc1C(=O)C2=O [Compound 13, 2-isopropyl-1-phenyl-1H-benzo[g]indazol-3,4,5(2H)-trione] | 2137 nmol of reduced Cytochrome C/min/μg NQO1 protein |
| CC(C)n1c2c(c(=O)n1C)C(=O)C(=O)c1ccccc1-2 [Compound 16, 1-isopropyl-2-methyl-1H-benzo[g]indazol-3,4,5(2H)-trione] | 4441 nmol of reduced Cytochrome C/min/μg NQO1 protein |
| COc1nn(-c2ccc(C(F)(F)F)cc2)c2c1C(=O)C(=O)c1ccccc1-2 [Compound 18, 3-methoxy-1-(4-(trifluoromethyl)phenyl)-1H-benzo[g]indazol-4,5-dione] | 4232 nmol of reduced Cytochrome C/min/μg NQO1 protein |
| COc1nn(-c2ccc(F)cc2)c2c1C(=O)C(=O)c1ccccc1-2 [Compound 19, 1-(4-fluorophenyl)-3-methoxy-1H-benzo[g]indazol-4,5-dione] | 4303 nmol of reduced Cytochrome C/min/μg NQO1 protein |

Same assay, conditions: Table 3; NQO1 2 ng, Compound 0.2 μM; control 74

| SMILES | NQO1 activity (nmol of reduced Cytochrome C/min/μg NQO1 protein) |
| --- | --- |
| COc1nn(-c2ccccc2)c2c1C(=O)C(=O)c1ccccc1-2 [Compound 6, 3-methoxy-1-phenyl-1H-benzo[g]indazol-4,5-dione] | 2905 nmol of reduced Cytochrome C/min/μg NQO1 protein |
| COc1nn(C(C)C)c2c1C(=O)C(=O)c1ccccc1-2 [Compound 17, 1-isopropyl-3-methoxy-1H-benzo[g]indazol-4,5-dione] | 4488 nmol of reduced Cytochrome C/min/μg NQO1 protein |
| Cn1c2c(c(=O)n1-c1ccccc1)C(=O)C(=O)c1ccccc1-2 [Compound 20, 1-methyl-2-phenyl-1H-benzo[g]indazol-3,4,5(2H)-trione] | 436 nmol of reduced Cytochrome C/min/μg NQO1 protein |
| Cn1c(=O)c2c(n1-c1ccccc1)-c1ccc(F)cc1C(=O)C2=O [Compound 21, 7-fluoro-2-methyl-1-phenyl-1H-benzo[g]indazol-3,4,5(2H)-trione] | 1095 nmol of reduced Cytochrome C/min/μg NQO1 protein |
| COc1nn(-c2ccccc2)c2c1C(=O)C(=O)c1cc(F)ccc1-2 [Compound 22, 7-fluoro-3-methoxy-1-phenyl-1H-benzo[g]indazol-4,5-dione] | 5360 nmol of reduced Cytochrome C/min/μg NQO1 protein |

Same assay, conditions: Table 4; NQO1 2 ng, Compound 0.2 μM; control 10

| SMILES | NQO1 activity (nmol of reduced Cytochrome C/min/μg NQO1 protein) |
| --- | --- |
| COc1nn(-c2ccccc2)c2c1C(=O)C(=O)c1ccccc1-2 [Compound 6, 3-methoxy-1-phenyl-1H-benzo[g]indazol-4,5-dione] | 3261 nmol of reduced Cytochrome C/min/μg NQO1 protein |
| COc1nn(-c2ccccc2)c2c1C(=O)C(=O)c1cc([N+](=O)[O-])ccc1-2 [Compound 23, 3-methoxy-7-nitro-1-phenyl-1H-benzo[g]indazol-4,5-dione] | 393 nmol of reduced Cytochrome C/min/μg NQO1 protein |
| COc1nn(-c2ccccc2)c2c1C(=O)C(=O)c1cc(N)ccc1-2 [Compound 24, 7-amino-3-methoxy-1-phenyl-1H-benzo[g]indazol-4,5-dione] | 3739 nmol of reduced Cytochrome C/min/μg NQO1 protein |
| COc1nn(-c2ccccc2)c2c1C(=O)C(=O)c1cc(Br)ccc1-2 [Compound 25, 7-bromo-3-methoxy-1-phenyl-1H-benzo[g]indazol-4,5-dione] | 1445 nmol of reduced Cytochrome C/min/μg NQO1 protein |
